Data from PubChem BioAssay (NCI).
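Exposure lasted 48 hours, with cells grown in 96-well plates and compounds tested at five concentrations. GI50 marks 50% less growth. Definition used: TGI = concentration required for complete inhibition of growth.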

Legend:
Experiment in all cases: NCI anticancer screen, dose series, 48 h
ACHN renal = system: ACHN renal
COLO 205 colon = system: COLO 205 colon
KM12 colon = system: KM12 colon
NCI-H226 lung = system: NCI-H226 lung
NCI-H23 lung = system: NCI-H23 lung
OVCAR-4 ovarian = system: OVCAR-4 ovarian
SK-MEL-2 melanoma = system: SK-MEL-2 melanoma
IGROV1 ovarian = system: IGROV1 ovarian

Compound | GI50 (ACHN renal) [µM] | TGI (ACHN renal) [µM] | GI50 (COLO 205 colon) [µM] | TGI (COLO 205 colon) [µM] | GI50 (KM12 colon) [µM] | GI50 (NCI-H226 lung) [µM] | GI50 (NCI-H23 lung) [µM] | TGI (NCI-H23 lung) [µM] | GI50 (OVCAR-4 ovarian) [µM] | TGI (OVCAR-4 ovarian) [µM] | GI50 (SK-MEL-2 melanoma) [µM] | GI50 (IGROV1 ovarian) [µM] | TGI (IGROV1 ovarian) [µM] | TGI (KM12 colon) [µM] | TGI (NCI-H226 lung) [µM] | TGI (SK-MEL-2 melanoma) [µM]
COc1ccc2c(c1)C(=O)CCc1cc(OC)c(OC)c(OC)c1-2 | 0.0505 | > 100 | < 0.01 | 16.9 | < 0.01 | < 0.01 | < 0.01 | 0.0617 | 0.818 | > 100 | < 0.01 |  |  |  |  | 
CC(C)CNc1nc(-c2ccccc2Cl)nc2ccccc12 | 15.1 | 33.8 | 20.3 | 50 | 23.4 | 17.7 | 16.2 | 31 | 17.1 | 50.5 | 23.5 | 19.7 | > 100 | 64.4 | 35 | 63.4
O=C(Oc1ccc[nH]c1=O)c1cc([N+](=O)[O-])cc([N+](=O)[O-])c1 | 93.3 | > 100 | > 100 | > 100 | 36.3 | > 100 | > 100 | > 100 | > 100 | > 100 | > 100 | > 100 | > 100 | > 100 | > 100 | > 100
O=C(O)c1ccc(CN2CCC(CN[C@@H]3C[C@H]3c3ccccc3)CC2)cc1 | > 100 | > 100 | > 100 | > 100 | > 100 | > 100 | > 100 | > 100 | > 100 | > 100 | > 100 | > 100 | > 100 | > 100 | > 100 | > 100
[N-]=[N+]=NCCCn1c2c(c3ccc([N+](=O)[O-])cc3c1=O)C(=O)c1ccccc1-2 | 9.14 | > 100 |  |  | > 100 |  | 9.25 | > 100 |  |  | > 100 | > 100 | > 100 | > 100 |  | > 100
Cc1cc(Cl)ccc1OCC(=O)Nc1nc2c(Cl)cccc2s1 | 43.3 | > 100 | > 100 | > 100 | 43.5 | 53.3 | 73 | > 100 | 46.7 | > 100 | > 100 | > 100 | > 100 | > 100 | > 100 | > 100
O=c1[nH]c2ccccc2cc1-c1nc2ccc(Cl)cc2[nH]1 | 2.45 | > 100 | 3.25 | > 100 | 0.385 | 2.71 | 4.7 | > 100 | 5.09 | > 100 |  | 1.36 | > 100 | > 100 | > 100 | 
CSC(SC)(C(=O)O)c1cc(-c2c(Cl)cccc2Cl)no1 |  | > 100 |  | > 100 |  |  |  | 79 |  | > 100 |  |  | > 100 |  | > 100 | > 100
O=C1NC(=S)S/C1=C/c1ccc2c(c1)OCO2 | > 100 | > 100 | > 100 | > 100 | > 100 | > 100 | > 100 | > 100 |  |  |  | 27.3 | > 100 | > 100 | > 100 | 
CC(=O)Oc1c(C)c(-c2ccccc2)c(C)c(-c2ccccc2)c1C(=S)c1ccccc1 |  | > 100 |  | > 100 |  |  |  | > 100 |  |  |  |  | > 100 | > 100 | > 100 | > 100
CN(C)CCOc1ccc([N+](=O)[O-])c2cccnc12 |  | > 100 |  | > 100 |  |  |  | > 100 |  |  |  |  | > 100 | > 100 | > 100 | > 100
C=C(C)[C@@H]1CC[C@]2(COCCCN)CC[C@]3(C)[C@H](CC[C@@H]4[C@@](C)(CCCNCCCN)[C@H](C(=C)C)CC[C@]43C)[C@@H]12 | 1.75 | 3.13 | 1.78 | 3.48 | 1.74 |  | 1.79 | 3.63 | 1.72 | 3.17 | 1.89 | 1.49 | 2.9 | 3.14 |  | 3.71
CN(C)C/C=C/C(=O)Nc1ccc(C(=O)N[C@@]2(C)CCC[C@@H](Nc3ncc(Cl)c(-c4c[nH]c5ccccc45)n3)C2)nc1 | < 0.0108 | 0.741 | 0.01 | 0.026 | 0.013 |  | < 0.01 | 0.0523 | 0.0141 | 0.915 | 0.0129 |  |  | 0.194 |  | 0.0511
CCN(CC)CCNC(Cc1ccccc1)c1ccc(OCc2ccccc2)cc1 (configuration not stated) | 7.85 | 21.6 | 1.79 | 3.4 | 5.22 | 13.8 |  |  | 5.42 | 19.4 | 3.42 | 4.43 | 17.1 | 18.2 | 34.8 | 9.74
